Assay results published in PubChem BioAssay AID330 (DTP/NCI, 2004).
Values joined by “and” are separate entries in the source; they are usually repeats but may differ in a detail not shown here. Identical values can stand only once. Toxic doses and inconclusive results are not listed.

System: P388 leukemia ip, CD2F1 mice, survival T/C
Experiment: NCI In Vivo Anticancer Drug Screen. Data for tumor model P388 Leukemia (intraperitoneal) in CD2F1 (CDF1) mice
Conditions: endpoint: median survival time, higher = longer survival
In short: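 Mice carrying the transplanted tumor received test compound or vehicle. Survival was recorded in each group, and the value is the treated-group measurement divided by that of the vehicle-treated control group.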

[1] = dose: 12.5 mg/kg/injection, schedule: Q01DX005 (ip), vehicle: saline with Tween-80
[2] = dose: 50.0 mg/kg/injection, schedule: Q01DX005 (ip), vehicle: saline with Tween-80
[3] = dose: 50.0 mg/kg/injection, schedule: Q01DX009 (ip), vehicle: saline with Tween-80
[4] = dose: 100.0 mg/kg/injection, schedule: Q01DX009 (ip), vehicle: saline with Tween-80
[5] = dose: 200.0 mg/kg/injection, schedule: Q01DX009 (ip), vehicle: saline with Tween-80
[6] = dose: 25.0 mg/kg/injection, schedule: Q01DX009 (ip), vehicle: saline with Tween-80
[7] = dose: 100.0 mg/kg/injection, schedule: Q04DX003 (ip), vehicle: saline with Tween-80
[8] = dose: 100.0 mg/kg/injection, schedule: Q01DX005 (ip), vehicle: saline with Tween-80
[9] = dose: 200.0 mg/kg/injection, schedule: Q01DX005 (ip), vehicle: saline with Tween-80
[10] = dose: 25.0 mg/kg/injection, schedule: Q01DX005 (ip), vehicle: saline with Tween-80
[11] = dose: 60.0 mg/kg/injection, schedule: Q01DX005 (ip), vehicle: saline with Tween-80
[12] = dose: 120.0 mg/kg/injection, schedule: Q01DX005 (ip), vehicle: saline with Tween-80
[13] = dose: 240.0 mg/kg/injection, schedule: Q01DX005 (ip), vehicle: saline with Tween-80
[14] = dose: 50.0 mg/kg/injection, schedule: Q01DX005 (ip), vehicle: Klucel (hydroxypropylcellulose) (HPC)
[15] = dose: 100.0 mg/kg/injection, schedule: Q01DX005 (ip), vehicle: Klucel (hydroxypropylcellulose) (HPC)

`O=C(Nc1ccccc1)c1c(O)[nH]c(=S)[nH]c1=O` was tested, and the T/C (dose: 3.13 mg/kg/injection, schedule: Q01DX005 (ip), vehicle: saline with Tween-80) was 110 % of control, the T/C (dose: 6.25 mg/kg/injection, schedule: Q01DX005 (ip), vehicle: saline with Tween-80) was 116 % of control and the T/C [1] was 120 % of control. For the same compound, the T/C [2] was 162 % of control and 201 % of control, the T/C (dose: 75.0 mg/kg/injection, schedule: Q01DX009 (ip), vehicle: saline with Tween-80) was 210 % of control and 237 % of control and 240 % of control and the T/C (dose: 175.0 mg/kg/injection, schedule: Q01DX009 (ip), vehicle: saline with Tween-80) was 283 % of control.
With `CC(C)(C)C(=O)OCCN(CCOC(=O)C(C)(C)C)C(=O)COC(=O)C(C)(C)C` the T/C [3] was 96 % of control, the T/C [4] was 94 % of control and the T/C [5] was 100 % of control.
For `COC(=O)CC(=O)c1ccc(OCCOc2ccc(C(C)(C)CC(C)(C)C)cc2)c([N+](=O)[O-])c1`, the T/C (dose: 50.0 mg/kg/injection, schedule: Q04DX003 (ip), vehicle: saline sonified) was 100 % of control, the T/C (dose: 100.0 mg/kg/injection, schedule: Q04DX003 (ip), vehicle: saline sonified) was 100 % of control and the T/C (dose: 200.0 mg/kg/injection, schedule: Q04DX003 (ip), vehicle: saline sonified) was 104 % of control.
For `CCC1CN2CCc3cc(OC)c(OC)cc3C2CC1Cl` (stereo unspecified), the T/C (dose: 12.5 mg/kg/injection, schedule: Q01DX009 (ip), vehicle: saline) was 90 % of control, the T/C (dose: 25.0 mg/kg/injection, schedule: Q01DX009 (ip), vehicle: saline) was 90 % of control and the T/C [3] was 101 % of control. The T/C (dose: 50.0 mg/kg/injection, schedule: Q01DX009 (ip), vehicle: saline) was 96 % of control.
`COc1ccc(NCCOc2ccccc2Br)cc1` was tested, and the T/C (dose: 100.0 mg/kg/injection, schedule: Q04DX003 (ip), vehicle: other) was 90 % of control, the T/C (dose: 132.0 mg/kg/injection, schedule: Q01DX009 (ip), vehicle: other) was 123 % of control and the T/C (dose: 200.0 mg/kg/injection, schedule: Q01DX009 (ip), vehicle: other) was 104 % of control. For the same compound, the T/C (dose: 200.0 mg/kg/injection, schedule: Q04DX003 (ip), vehicle: other) was 90 % of control, the T/C (dose: 300.0 mg/kg/injection, schedule: Q01DX009 (ip), vehicle: other) was 100 % of control and the T/C (dose: 400.0 mg/kg/injection, schedule: Q04DX003 (ip), vehicle: other) was 95 % of control.
In the case of `Cc1cc(Nc2ccc(N(CCCl)CCCl)cc2)cc(C)c1O`, the T/C (dose: 6.25 mg/kg/injection, schedule: Q01DX009 (ip), vehicle: saline with Tween-80) is reported as 151 % of control, the T/C (dose: 12.5 mg/kg/injection, schedule: Q01DX009 (ip), vehicle: saline with Tween-80) is reported as 154 % of control and 169 % of control and the T/C [6] is reported as 169 % of control and 175 % of control.
In the case of `CCOc1c(N=Nc2ccc(Cl)cc2)c(C)nn1C(=S)SC`, the T/C (dose: 7.5 mg/kg/injection, schedule: Q01DX005 (ip), vehicle: Klucel + Tween-80) is reported as 92 % of control, the T/C (dose: 15.0 mg/kg/injection, schedule: Q01DX005 (ip), vehicle: Klucel + Tween-80) is reported as 86 % of control and the T/C (dose: 30.0 mg/kg/injection, schedule: Q01DX005 (ip), vehicle: Klucel + Tween-80) is reported as 86 % of control. For the same compound, the T/C (dose: 60.0 mg/kg/injection, schedule: Q01DX005 (ip), vehicle: Klucel + Tween-80) was 94 % of control.
In the case of `O=C(O)C1CCC[N-]1.[Cl][Pt][Cl]` (stereo unspecified), the T/C (dose: 25.0 mg/kg/injection, schedule: Q04DX003 (ip), vehicle: water) is reported as 110 % of control, the T/C (dose: 50.0 mg/kg/injection, schedule: Q04DX003 (ip), vehicle: water) is reported as 94 % of control and the T/C (dose: 100.0 mg/kg/injection, schedule: Q04DX003 (ip), vehicle: saline) is reported as 157 % of control. The T/C (dose: 150.0 mg/kg/injection, schedule: Q04DX003 (ip), vehicle: saline) was 157 % of control.
`O=C1CN(C2CC2N2CC(=O)OC(=O)C2)CC(=O)O1` (stereo unspecified) was tested, and the T/C [7] was 97 % of control and the T/C (dose: 400.0 mg/kg/injection, schedule: Q04DX003 (ip), vehicle: saline with Tween-80) was 89 % of control.
`OCC1OC(n2cnc3c(I)ncnc32)C(O)C1O` (stereo unspecified) was tested, and the T/C [2] was 100 % of control, the T/C [8] was 103 % of control and the T/C [9] was 101 % of control.
`Cc1cccc2c1Oc1ccccc1C2NC(=O)c1ccccc1` (stereo unspecified) was tested, and the T/C [1] was 86 % of control, the T/C [10] was 89 % of control and the T/C [2] was 86 % of control and 88 % of control. For the same compound, the T/C [9] was 87 % of control.
For `N/C(=N\C(=O)OCc1ccccc1)N(CCCC(NC(=O)OCc1ccccc1)C(=O)O)C(=O)OCc1ccccc1` (stereo unspecified), the T/C [11] was 104 % of control, the T/C [12] was 87 % of control and the T/C [13] was 88 % of control.
`COc1cccc(C=O)c1OCCSC` was tested, and the T/C [10] was 99 % of control, the T/C [2] was 103 % of control and the T/C [8] was 108 % of control.
In the case of `CN(/N=C(C#N)/C(N)=N/N)c1ccccc1`, the T/C (dose: 100.0 mg/kg/injection, schedule: Q04DX002 (ip), vehicle: saline with Tween-80) is reported as 96 % of control and the T/C (dose: 200.0 mg/kg/injection, schedule: Q04DX002 (ip), vehicle: saline with Tween-80) is reported as 96 % of control.
`CC1CC(=O)c2c(O)ccc(Cl)c21` (stereo unspecified) was tested, and the T/C [14] was 106 % of control, the T/C [15] was 104 % of control and the T/C (dose: 200.0 mg/kg/injection, schedule: Q01DX005 (ip), vehicle: Klucel (hydroxypropylcellulose) (HPC)) was 100 % of control.
With `COc1cccc(CN2CCN(N)CC2)c1` the T/C (dose: 12.5 mg/kg/injection, schedule: Q01DX005 (ip), vehicle: Klucel (hydroxypropylcellulose) (HPC)) was 100 % of control, the T/C (dose: 25.0 mg/kg/injection, schedule: Q01DX005 (ip), vehicle: Klucel (hydroxypropylcellulose) (HPC)) was 104 % of control and the T/C [14] was 107 % of control. For the same compound, the T/C [15] was 100 % of control.
`c1ccc2c(Nc3ccc(C4=NCCN4)cc3)nnc(Nc3ccc(C4=NCCN4)cc3)c2c1` was tested, and the T/C (dose: 3.13 mg/kg/injection, schedule: Q04DX003 (ip), vehicle: saline with Tween-80) was 100 % of control, the T/C (dose: 6.25 mg/kg/injection, schedule: Q04DX003 (ip), vehicle: saline with Tween-80) was 110 % of control and the T/C (dose: 12.5 mg/kg/injection, schedule: Q04DX003 (ip), vehicle: saline with Tween-80) was 110 % of control. For the same compound, the T/C [6] was 195 % of control, the T/C [3] was 210 % of control and the T/C [4] was 250 % of control. The T/C [7] was 154 % of control and 168 % of control.
For `O=C(Nc1ccc(Cl)cc1)c1cc2c(cc1O)[nH]c1ccccc12`, the T/C [2] was 92 % of control, the T/C [8] was 96 % of control and the T/C [9] was 98 % of control.
For `C#Cc1cccc(N=Cc2cc(Cl)cc(Br)c2O)c1`, the T/C [2] was 105 % of control, the T/C [8] was 102 % of control and the T/C [9] was 107 % of control.
`CC(C)c1nnc(NC(=O)CSC(=S)N2CCOCC2)s1` was tested, and the T/C [11] was 106 % of control, the T/C [12] was 98 % of control and the T/C [13] was 97 % of control.
With `CCN(CC)CCOc1ccc(C)c(C)c1` the T/C [2] was 106 % of control and the T/C [8] was 103 % of control.
In the case of `CCC(C)CCC(=O)O` (stereo unspecified), the T/C [3] is reported as 98 % of control, the T/C [4] is reported as 97 % of control and the T/C [5] is reported as 99 % of control.
For `C=C(OC1C=C(C(=O)O)C2OC2C1O)C(=O)O` (stereo unspecified), the T/C (dose: 2.5 mg/kg/injection, schedule: Q01DX005 (ip), vehicle: saline) was 100 % of control, the T/C (dose: 5.0 mg/kg/injection, schedule: Q01DX005 (ip), vehicle: saline) was 100 % of control and the T/C (dose: 10.0 mg/kg/injection, schedule: Q01DX005 (ip), vehicle: saline) was 106 % of control. The T/C (dose: 20.0 mg/kg/injection, schedule: Q01DX005 (ip), vehicle: saline) was 102 % of control and the T/C (dose: 40.0 mg/kg/injection, schedule: Q01DX005 (ip), vehicle: saline) was 109 % of control.
In the case of `CC(=O)C1(O)CCCC(OC2CC(N)C(O)C(C)O2)C1` (stereo unspecified), the T/C (dose: 6.25 mg/kg/injection, schedule: Q01DX009 (ip), vehicle: water) is reported as 100 % of control, the T/C (dose: 12.5 mg/kg/injection, schedule: Q01DX009 (ip), vehicle: water) is reported as 95 % of control and the T/C (dose: 25.0 mg/kg/injection, schedule: Q01DX009 (ip), vehicle: water) is reported as 104 % of control. The T/C (dose: 50.0 mg/kg/injection, schedule: Q01DX009 (ip), vehicle: water) was 113 % of control and the T/C (dose: 100.0 mg/kg/injection, schedule: Q01DX009 (ip), vehicle: water) was 113 % of control.
For `CC(C)(C(=O)O)n1c(-c2ccccc2)c(-c2ccccc2)oc1=O`, the T/C (dose: 8.75 mg/kg/injection, schedule: Q01DX005 (ip), vehicle: Klucel (hydroxypropylcellulose) (HPC)) was 106 % of control, the T/C (dose: 17.5 mg/kg/injection, schedule: Q01DX005 (ip), vehicle: Klucel (hydroxypropylcellulose) (HPC)) was 106 % of control and the T/C (dose: 35.0 mg/kg/injection, schedule: Q01DX005 (ip), vehicle: Klucel (hydroxypropylcellulose) (HPC)) was 106 % of control.
